Measured values taken from the NIST ThermoML archive (doi:10.1021/je050209y).

Assays:
[1] = xn = mol fraction of the nth substance listed; details: 298.15 K, 101.33 kPa, Liquid
[2] = 298.15 K; 101.33 kPa; Liquid

CNC=O [N-methylformamide] + O
[1]
Details	mass density [kg/m3]	viscosity [mPa·s]
x1 = 0.0504	1003.2	1.174
x1 = 0.1001	1008.9	1.422
x1 = 0.2	1014.6	1.793
x1 = 0.2998	1016.3	2.001
x1 = 0.4002	1015.1	2.067
x1 = 0.4996	1012.2	2.04
x1 = 0.5996	1009.4	1.961
x1 = 0.6994	1006.1	1.878
x1 = 0.7999	1003.7	1.794
x1 = 0.8983	1000.9	1.734
x1 = 0.9498	999.7	1.707

CN(C)C=O [dimethylformamide]
[2]
Details	mass density [kg/m3]	viscosity [mPa·s]
–	944.2	0.799

CNC=O [N-methylformamide] + CN(C)C=O
[1]
Details	mass density [kg/m3]	viscosity [mPa·s]
x2 = 0.0497	995.4	1.618
x2 = 0.0997	991.9	1.524
x2 = 0.2002	985.5	1.373
x2 = 0.2999	979.4	1.274
x2 = 0.4001	973.6	1.171
x2 = 0.4999	968.1	1.085
x2 = 0.5999	963	1.006
x2 = 0.699	958	0.947
x2 = 0.8001	953.2	0.897
x2 = 0.9001	948.6	0.855
x2 = 0.95	946.4	0.84

CN(C)C=O [dimethylformamide] + O
[1]
Details	mass density [kg/m3]	viscosity [mPa·s]
x1 = 0.05	996	1.31
x1 = 0.1001	996.8	1.728
x1 = 0.2	995.1	2.346
x1 = 0.299	991.6	2.491
x1 = 0.3998	984.4	2.273
x1 = 0.4997	975.9	1.878
x1 = 0.5993	968.4	1.532
x1 = 0.6995	960.7	1.243
x1 = 0.8	954.9	1.045
x1 = 0.8991	949.1	0.901
x1 = 0.9488	946.9	0.843

CNC=O [N-methylformamide]
[2]
Details	mass density [kg/m3]	viscosity [mPa·s]
–	998.8	1.681
